In US4771123A, “Peptide thioneamides as selective substrates for cysteine proteases” (Enzyme Systems Products, Inc., priority 1986, dated 1988):

Experiments:
Format in all cases: biochemical
Papain [1] = molecular target: T1, Papain (Carica papaya, UniProt P00784); assay: Selective detection assay, rate of AIE formation with papain alone (Table II); conditions: Papain 6.85×10^-6 M; thiol buffer pH 6.5, 2.5% DMSO; substrate 2.46×10^-4 M (Cbz-Lys-AIE) or 2.53×10^-4 M (Cbz-Lys.PSI.[CS]-AIE)
T1 sequence (P00784 134-345): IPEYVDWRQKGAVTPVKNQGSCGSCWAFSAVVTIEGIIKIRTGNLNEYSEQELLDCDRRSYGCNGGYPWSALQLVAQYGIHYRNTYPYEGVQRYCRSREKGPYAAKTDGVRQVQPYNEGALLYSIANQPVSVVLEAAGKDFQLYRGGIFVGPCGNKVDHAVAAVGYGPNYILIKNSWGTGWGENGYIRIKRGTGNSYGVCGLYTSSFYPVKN
Method: (§1) A thiol buffer at pH 6.5 was used (52 mM NaH2 PO4, 31 mM dithiothreitol, 2.1 mM EDTA) with 2.5% DMSO. The enzyme concentrations in the assays were 6.85×10^-6 M for papain, and 1.28×10^-6 M for trypsin. Substrate concentrations were 2.46×10^-4 M for Cbz-Lys-AIE, and 2.53×10^-4 M for Cbz-Lys.PSI.[CS]-AIE. Rates are given in terms of moles AIE formed per minute.

Papain [2] = molecular target: T1, Papain; assay: Hydrolysis of oxyamide and thioneamide substrates by papain (catalytic constants, Table I); conditions: pH 6.5, thiol buffer (52 mM NaH2PO4, 31 mM dithiothreitol, 2.1 mM EDTA), 12.5% DMSO
Method: (§2) Table I below provides a comparison between hydrolysis rates of trypsin and papain acting on two different oxyamides and on their corresponding thioneamides. Trypsin was used at pH 7.5 in a Tris buffer (50 mM), with 10 mM CaCl2, and 12.5% DMSO. Papain was used at pH 6.5 in a thiol buffer (52 mM NaH2 PO4, 31 mM dithiothreitol, 2.1 mM EDTA) and 12.5% DMSO. Table I lists the catalytic constants kcat (moles product formed per second per mole enzyme), KM (M), and kcat /KM (M^-1 sec^-1) for the indicated substrates.

Trypsin [3] = assay: Hydrolysis of oxyamide and thioneamide substrates by trypsin (catalytic constants, Table I); conditions: pH 7.5, Tris buffer (50 mM), 10 mM CaCl2, 12.5% DMSO
Method: as §2

Trypsin [4] = assay: Selective detection assay, rate of AIE formation with trypsin alone (Table II); conditions: Trypsin 1.28×10^-6 M; thiol buffer pH 6.5, 2.5% DMSO; substrate 2.46×10^-4 M (Cbz-Lys-AIE) or 2.53×10^-4 M (Cbz-Lys.PSI.[CS]-AIE)
Method: as §1

| Compound | Rate of AIE formation (Papain [1]) | Km (Papain [2]) | kcat (Papain [2]) | kcat /KM (Papain [2]) | Km (Trypsin [3]) | kcat (Trypsin [3]) | kcat /KM (Trypsin [3]) | Rate of AIE formation (Trypsin [4]) | rate of product formation by trypsin (in words) (Trypsin [3]) |
| --- | --- | --- | --- | --- | --- | --- | --- | --- | --- |
| COC(=O)c1cc(NC(=O)[C@H](CCCCN)NC(=O)OCc2ccccc2)cc(C(=O)OC)c1 [Cbz--Lys--AIE, Cbz-Lys-AIE] | 6.03 moles AIE formed per minute | 281 µM | 2.95 × 10^-2 moles product formed per secon | 105 M⁻¹ s⁻¹ | 168 µM | 1.15 × 10^-1 moles product formed per secon | 686 M⁻¹ s⁻¹ | – | – |
| Cbz-Lys.PSI.[CS]-AIE.HCl [Cbz--Lys.psi.[CS]--AIE] | 1.15 moles AIE formed per minute | 213 µM | 4.00 × 10^-3 moles product formed per secon | 18.8 M⁻¹ s⁻¹ | – | – | – | 0.00 moles AIE formed per minute | NO RATE |
| Cbz--Phe--Arg--AIE | – | 813 µM | 3.53 × 10^1 moles product formed per secon | 43500 M⁻¹ s⁻¹ | 502 µM | 9.03 × 10^-1 moles product formed per secon | 1800 M⁻¹ s⁻¹ | – | – |
| Br.COC(=O)c1cc(NC(=S)[C@H](CCCNC(=N)N)NC(=O)[C@H](Cc2ccccc2)NC(=O)OCc2ccccc2)cc(C(=O)OC)c1 [Cbz--Phe--Arg.psi.[CS]--AIE, Cbz-Phe-Arg.PSI.[CS]-AIE.HBr] | – | 574 µM | 5.35 moles product formed per secon | 0.0932 M⁻¹ s⁻¹ | – | – | – | – | NO RATE |
